Where “and” joins values, the source holds several entries; their conditions need not be identical. Identical values can stand only once.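 Dose response: 5 concentrations. Exposure: 48 h. Format: 96-well plates. Endpoint: linear interpolation; highest concentration if not reached. The concentration for 50% growth inhibition is given as GI50. The concentration for full growth arrest is given as TGI.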
What was measured:
Assay in all cases: growth of human tumour cells (NCI), 48 h
UACC-257 melanoma = tested on: UACC-257 melanoma
DU-145 prostate = tested on: DU-145 prostate
HCC-2998 colon = tested on: HCC-2998 colon
OVCAR-4 ovarian = tested on: OVCAR-4 ovarian
786-0 renal = tested on: 786-0 renal
TK-10 renal = tested on: TK-10 renal
T-47D breast = tested on: T-47D breast
HOP-62 NSCLC = tested on: HOP-62 NSCLC
U251 CNS = tested on: U251 CNS
HS 578T breast = tested on: HS 578T breast

Compound | GI50 (UACC-257 melanoma) [µM] | TGI (UACC-257 melanoma) [µM] | GI50 (DU-145 prostate) | TGI (DU-145 prostate) | GI50 (HCC-2998 colon) [µM] | TGI (HCC-2998 colon) [µM] | GI50 (OVCAR-4 ovarian) [µM] | TGI (OVCAR-4 ovarian) [µM] | GI50 (786-0 renal) [µM] | TGI (786-0 renal) [µM] | GI50 (TK-10 renal) [µM] | TGI (TK-10 renal) [µM] | GI50 (T-47D breast) [µM] | TGI (T-47D breast) [µM] | GI50 (HOP-62 NSCLC) [µM] | TGI (HOP-62 NSCLC) [µM] | GI50 (U251 CNS) [µM] | TGI (U251 CNS) [µM] | GI50 (HS 578T breast) [µM] | TGI (HS 578T breast) [µM]
CCn1nc(C#Cc2c(C)ccc3c(Nc4ccc(Cl)cc4)nccc23)c2c(N)ncnc21 | 3.54 | 38.7 | 5.74 µM | > 100 µM | 7.57 | > 100 | 6.16 | 53.5 | 3.66 | > 100 | 6.39 | > 100 | 5.48 | > 100 | 4.01 | 78 | 4.43 | > 100 |  | 
COc1cc(-c2nn(-c3cccc(NC(=O)NCCNC(=O)c4ccccc4)c3)cc2-c2ccncc2)ccc1Cl | 3.96 | 21.1 | 4.72 µM | > 100 µM | 5.42 | > 100 | 3.03 | > 100 | 1.94 | 5.37 | 6.09 | 63.7 | 1.25 | 8.79 | 3.95 | > 100 | 2.62 | > 100 | 6.29 | > 100
Cc1ccccc1C1N=C2Oc3ccccc3C=C2C(=O)N1 (centres undefined) | > 100 | > 100 | 2.09 µM | > 100 µM | 4.69 | > 58.7 | 11.8 | > 100 | 14.1 | > 100 | 8.06 | > 100 | 1.58 | > 100 | 3.39 | > 100 | 11.7 | > 100 | 2.82 | > 100
CCN(CC)CCCC(C)Nc1ccnc2cc(OC)ccc12 (centres undefined) | 18.2 | 34.2 | 20.6 µM | 44.4 µM | 14.7 | 28.4 | 22.6 | 62.2 | 17.1 | 35.9 | 17.7 | 40.6 |  |  | 21.2 | 50.9 | 42 | > 100 | 26.3 | 66.3
CNC(=S)N/N=C/CSC/C=N/NC(=S)NC | > 100 | > 100 | > 100 µM | > 100 µM | > 100 | > 100 |  | > 100 | > 100 | > 100 | > 100 | > 100 | 0.667 | > 100 | > 100 | > 100 | > 100 | > 100 | > 100 | > 100
CC(C)CC(=O)O[C@H]1C(=O)O[C@@H]2C[C@H]3[C@H](C)C(=O)C(O[C@@H]4O[C@H](CO)[C@@H](O)[C@H](O)[C@H]4O)=C[C@]3(C)[C@H]3[C@@H](O)[C@H](O)[C@]4(C(=O)O)OC[C@]32[C@@H]14 | > 100 | > 100 | > 100 µM | > 100 µM | 20.6 | 54.4 |  |  | > 100 | > 100 |  | > 100 |  | > 100 | 44.7 | > 100 | 31.7 | > 100 | 39.8 | > 100
O=c1[nH]c(-c2ccncc2)nc2sc3c(c12)CCCCCC3 | > 100 | > 100 | > 100 µM | > 100 µM | > 100 | > 100 |  |  | > 100 | > 100 | > 100 | > 100 |  |  | > 100 | > 100 | > 100 | > 100 | > 100 | > 100
CS(=O)c1cc(=O)c2ccccc2s1 (centres undefined) |  | 7.26 |  | 34.3 µM |  | 16.6 |  | 5.95 |  | 7.41 |  | 12.7 |  | 6.52 |  | 44.2 |  | 22.1 |  | 62.7
Fc1cnccc1-c1nc2ccc3[nH]ncc3c2c2c1CCCC2 | 5.48 | > 100 | 1.67 µM | 43.3 µM | 3.2 | > 100 | 3.5 | > 100 | 1.67 | 5.23 | 0.605 | > 100 | 1.51 | 9.01 | 0.909 | 94.2 | 1.96 | > 100 | 0.661 | 6.7
C=C(C)[C@@H]1CC[C@]2(C(=O)OC)CC[C@]3(C)[C@H](CC[C@@H]4[C@@]5(C)CC/C(=N\OCCC(=NCCC#N)NOCCC#N)C(C)(C)[C@@H]5CC[C@]43C)[C@@H]12 | 5.35 | > 50 | 13.4 µM | > 50 µM | 13.8 | > 50 | 12.3 | > 50 | 6.42 | 16.4 | 13.8 | > 50 | 3.47 | > 50 | 12.5 | > 50 | 4.3 | 12.4 | 30.2 | > 50
N=C(N)c1ccc(-c2ccc(-c3cccs3)s2)cc1F | 1.77 | 3.43 | 1.57 µM and 1.44 µM | 3.04 µM and 2.84 µM | 1.29 | 2.93 | 1.54 | 3.85 | 1.14 | 2.63 | 1.61 | 3.03 | 1.49 | 3.48 | 1.61 | 3.07 | 1.33 | 2.8 | 1.8 | 4.49
CC1SC(c2ccc(OCc3ccccc3)cc2)N(NC(=O)C(O)(c2ccccc2)c2ccccc2)C1=O (centres undefined) | 7.39 | 21.3 | 3.55 µM | 13.6 µM | 1.92 | 4.99 | 5.13 | 36 | 1.98 | 4.64 | 2.57 | 14.3 | 3.52 | 14.9 | 2.01 | 8.1 | 4.06 | 15.3 | 1.94 | 7.15
Cc1nn(-c2ccccc2)c2c1[C@@H](C)[C@H]1CC3(CC4(C)C[C@@H]3C1(C)c1c(C)nn(-c3ccccc3)c1N4C)N2C (some centres undefined) |  |  | > 100 µM | > 100 µM | > 100 | > 100 | 8.66 | > 100 | > 100 | > 100 | > 100 | > 100 | 2.64 | > 100 | 18.3 | > 100 |  |  | > 100 | > 100
CCc1ccc2cc3c(ccc4ccccc43)c3c2c1CC3 |  |  | > 100 µM | > 100 µM | > 100 | > 100 | > 100 | > 100 | > 100 | > 100 | > 100 | > 100 | > 100 | > 100 | > 100 | > 100 |  |  | > 100 | > 100
CN(C)c1ccc(-c2cc(-c3cccc(NS(C)(=O)=O)c3)nc(N)c2C#N)cc1 | 0.0563 | 44.6 |  |  | 0.0925 | 0.866 | 0.522 | 53.8 | 0.0491 | 13.5 | 0.0735 | > 55.2 | 0.951 | 35.9 | 0.045 | 29.6 | 0.0418 | 20.4 | 0.0292 | 49.2
C=C(CN1CCc2ccccc2C1)c1ccc(C(=O)Nc2cccc(N)c2)cc1 | 14.8 | 29.7 | 19 µM | 44 µM | 17.1 | 31.9 |  |  | 17.2 | 46.6 | 27.3 | 92.5 | 27.3 | > 100 | 25.6 | 68.4 | 22.3 | 57.4 | 24.7 | 58.1
CN1CC[C@H](N(C)C(=O)N2CC(c3cc(F)ccc3F)=C[C@@]2(CO)c2ccccc2)[C@H](F)C1 |  | 41.4 | 0.033 µM | 35.4 µM | 0.037 | 13.4 | 20.5 | > 100 | 0.0072 | > 100 | 27.7 | > 100 | 0.0635 | > 100 |  |  |  | > 100 | 0.0293 | 7.88
COc1ccc(-c2cc(-c3ccc(Cl)cc3)c(C#N)c(=O)n2CCCCCC(=O)Nc2ccccc2N)cc1 |  |  | 10.6 µM | > 100 µM | 4.02 | 36.5 | 6.48 | > 100 | 4.49 | > 100 | 28.5 | > 100 | 3.33 | > 100 | 3.49 | 52.1 | 6.19 | > 100 | 3.06 | 29.7
COc1cc2nc(NC3CCC3)nc(NC3CCN(C(C)C)CC3)c2cc1OC | 1.89 | 3.78 | 4.04 µM | 14.9 µM | 1.7 | 3.46 | 3.25 | 20.9 | 1.85 | 3.91 |  |  | 1.95 | 4.11 | 2.6 | 11 | 1.95 | 4.52 | 2.08 | 5.45
CCN(CC)c1ccc(C=C2C(=O)NC(=S)NC2=O)cc1 | 6.46 | 19.4 | 4.18 µM | 13 µM | 1.99 | 3.73 | 7.58 | 19.5 | 2.27 | 4.08 |  |  | 9.62 | 25.7 | 5.7 | 19.1 | 2.9 | 7.59 | 5.53 | > 100
CC(=O)NNc1nc(C)c(C(=O)NNC(=O)C(=O)Nc2ccc(C)cc2[N+](=O)[O-])s1 |  | > 100 |  |  |  | > 100 |  | > 100 |  | > 100 |  | > 100 |  |  |  | > 100 |  | > 100 |  | 
CCOc1ccc(-c2nc3ccc(-c4nc5ccc(N6CCN(C)CC6)cc5[nH]4)cc3[nH]2)cc1OCC | 1.33 | 4.76 | 2.37 µM | 8.1 µM |  |  | 2.19 | 6.79 | 2.08 | 5.93 | 6.22 | 38.9 | 0.946 | 5.57 | 2.86 | 7.52 | 1.32 | 6.71 | 1.74 | 5.46
CCCCP1(=O)C=CC(Cl)=C(C)C1 (centres undefined) |  | > 100 |  |  |  | > 100 |  | > 100 |  | > 100 |  | > 100 |  |  |  | > 100 |  | > 100 |  | 
C=CN(C(=O)N1CCN(c2cc3c(cc2F)c(=O)c(C(=O)O)cn3C2CC2)CC1)c1nc(-c2ccc(C)cc2)cs1 | 2.81 | 7.44 | 3.8 µM | > 100 µM | 3.85 | > 100 | 3.56 | > 100 | 0.333 | 10.5 | 3.89 | > 100 |  |  | 3.49 | > 100 | 3.39 | 11.6 | 3.45 | 21.3
COc1cc(/C=C(\C#N)C(=O)c2ccccc2)cc(OC)c1OC |  | > 100 |  |  |  | > 100 |  | > 100 |  | > 100 |  | > 100 |  |  |  | > 100 |  | > 100 |  | 
CC(=O)Nc1ccc(/C=C/C(=O)c2sc(-n3nc(-c4ccccc4)cc3-c3ccccc3)nc2C)cc1 |  | > 100 |  |  | > 100 | > 100 |  | > 100 | > 100 | > 100 | > 100 | > 100 |  |  | > 100 | > 100 | > 100 | > 100 |  | 
CCc1cccc(CC)c1NC1=CC(=O)C(=O)c2ccccc21 |  | 28.6 |  |  |  | 28.8 |  | 27.8 |  | 44.9 |  | 56.3 |  |  |  | 40.3 |  | 36.6 |  | 
O=C(N=Nc1c(O)[nH]c2c(Cl)cc(Cl)cc12)C(=O)Nc1cccc(C(F)(F)F)c1 |  | > 100 |  |  |  | > 100 |  | > 100 |  | > 100 |  | > 100 |  |  |  | > 100 |  | > 100 |  | > 100

From PubChem BioAssay (NCI)
